Reference: patent US11779551B1 (priority 2022, dated 2023)

Experiments:
[1] = tested on: human lymphoblast cells; format: cell-based
[2] = tested on: human lymphoblast cells

Structure (SMILES)	effect on redox state of the proteome [1]	effect on cytotoxicity of PbTx-2 (LDH activity) [2]	reduction of PbTx-2 cytotoxicity [2]
O=S(=O)(O)CCS [MESNA, sodium mercaptoethyl sulfonate]	restored to control levels	significantly reduced cytotoxicity	approximately 50%
NCCS [cysteamine]	–	significantly reduced cytotoxicity	–
